Laboratory results: a melting point compilation (Tetko et al.; mined from patent text by program, amines drawn as free bases though some values may be those of a salt)

Structure (SMILES) | melting point
O=C(NC(=O)c1ccccc1Cl)Nc1cc(Cl)c2c(c1)C(F)(F)C(F)(F)S2 | 140 to 142 °C
O=C(O)C1(C(F)F)c2ccccc2Oc2ccccc21 | 181 to 182 °C
Fc1cccc(Nc2nc(Cl)nc(Cl)n2)c1 | 143 °C
CNS(=O)(=O)CCc1ccc2[nH]cc(CCCN3C(=O)c4ccccc4C3=O)c2c1 | 169 to 170 °C
O=C(c1ccccc1F)c1cc(Cl)ccc1CCCN1C(=O)c2ccccc2C1=O | 98 to 99 °C
[N-]=[N+]=NCCCn1ccc(-c2ccc(F)cc2)c1-c1ccncc1 | 219 to 222 °C
CCOC(=O)C1=C(C)NC(SCc2ccc(OC)cc2)=NC1c1cccc([N+](=O)[O-])c1Cl (stereo not given) | 155 to 157 °C
CS(=O)(=O)Nc1ccc(C(N)=O)cc1Oc1ccc(F)cc1F | 147 to 150 °C
O=[N+]([O-])c1cnc2ccccc2c1NCC12CCCN1CCC2 | 155 to 158 °C
O=C(O)c1ccc(OCc2ccccc2)cc1O | 179 to 180 °C
CC(N)c1ccc2c(c1)C(c1ccccc1F)=NC(C)(C)C(=O)N2C (stereo not given) | 50 to 51 °C
Fc1ccc(-c2ccn(C3CCCNC3)c2-c2ccncc2)cc1 (stereo not given) | 189 to 191 °C
O=C1NC(=O)C(c2c3n(c4ccccc24)CCC(CO)C3)=C1c1ccccc1Cl (stereo not given) | 232 to 233 °C
CC(C)CCCC(C)C1CCC2C3CC=C4CC(OC(=O)OCC(N)C(=O)O)CCC4(C)C3CCC12C (stereo not given) | 147 °C
CC(C)n1nc(-c2sc(C(N)=O)nc2-c2cccc(Cl)c2)ccc1=O | 232 to 234 °C
CCOP(=O)(COCC(CO)On1cnc2c(=O)[nH]c(N)nc21)OCC (stereo not given) | 238 to 240 °C
O=c1nc(-c2cnccn2)sc2ccccc12 | 241 to 242 °C
Cc1nc(C(=O)Nc2ccc3[nH]cc(C4CCN(C)CC4)c3n2)c(C)s1 | 125 to 126 °C
O=P(O)(O)C(NCc1ccccc1)c1ccccc1 (stereo not given) | 233 to 236 °C
CN1C(=O)CC=C2c3ccc(Cl)cc3CCC21 (stereo not given) | 99 °C
Fc1ccc([C@@H]2CCN(Cc3ccccc3)C[C@H]2COc2ccc3c(c2)OCO3)cc1 | 98 to 100 °C
Oc1cccc2[nH]c(-c3ccccc3)cc12 | 120 to 123 °C
Cc1c(C(=O)Nc2ccc(OCCCN3CCOCC3)c(C#N)c2)cnn1-c1ccc(C(F)(F)F)cc1 | 172 to 174 °C
Cc1ccccc1C(=O)CN1C(=O)C(NC(=O)Nc2cccc(-c3nnn[nH]3)c2)N=C(c2ccccc2F)c2cccc(C)c21 (stereo not given) | 216 to 220 °C

Structure (SMILES) | melting point
COc1ccccc1CNc1ccc2cc(Nc3nnc(C)o3)ccc2n1 | 183 °C
CN(C)CC1CN(C)C(=S)c2cccnc2O1 (stereo not given) | 178 to 179 °C
CS(=O)c1ccc(-c2nn(CC3CC3)c(=O)cc2-c2ccc(Cl)cc2)cc1 (stereo not given) | 152 °C
C=Cc1ccc(S(=O)(=O)On2nnc3ccc(C=C)cc32)cc1 | 85 to 87 °C
CC(C)(C)OC(=O)Nc1cc(Cl)c(-c2ccccc2)cc1N | 109 to 111 °C
NNc1nnc(C=Cc2ccc([N+](=O)[O-])o2)s1 | 205 to 206 °C
CC(C)(C)OC(=O)N1CCN2C(=O)OC(c3ccccc3)C2C1 (stereo not given) | 133 to 135 °C
Cc1cc(C)cc(N(CCO)Cc2ccc3nc(NCCCN4CCOCC4)n(Cc4nc(C)ccc4O)c3c2)c1 | 180 °C
O=c1nc(Nc2ccc(Cl)cc2)sc2ncccc12 | 278 to 279 °C
CCOC(=O)Cc1c(C)[nH]c2ccc(F)cc12 | 61 to 62 °C
O=C(Cc1ccc2[nH]cc(CCN3C(=O)c4ccccc4C3=O)c2c1)NC1CCCCC1 | 175 to 176 °C
CC(C)Nc1nc2cc(Cl)c(Cl)cc2n1C1OC(CO)C(O)C1O (stereo not given) | 197 to 199 °C
O=C(O)c1ccc2c(c1)S(=O)(=O)NCN2C1CC1 | 263 to 265 °C
CNC(=C[N+](=O)[O-])NCCSCc1cc(CN(C)C)ccn1 | 113 to 115 °C
Cc1[nH]c(-c2ccccc2)nc1-c1cc(C(C)(C)C)c(O)c(C(C)(C)C)c1 | 298 to 300 °C
COC1=C(OC)C(=O)C(CCCCCCCCCCCOC(C)=O)=C(C)C1=O | 41 °C
Brc1ccc(C=Cc2ccc(Br)cc2)cc1 | 213 °C
COc1cc(OCCOc2ccccc2)cc2nc(-c3cc(C)nc(C)c3)[nH]c(=O)c12 | 223 to 224 °C
CCOC(=O)C(O)(Cn1cncn1)c1ccc(F)cc1 (stereo not given) | 142 to 144 °C
O=C(Nc1cccc(C(F)(F)F)c1)Nc1ccc(Oc2ncnc3cc[nH]c23)cc1Cl | 316 to 319 °C
CC(C)=CC(=O)N[C@H]1CC[C@H](CCN2CCN(c3nccc4c3OCC4)CC2)CC1 | 184 °C
NC(=O)N1CCC(Oc2c(F)c(F)c(F)c(F)c2F)(c2ccccc2)CC1 | 155 to 160 °C
CCCn1nc2c(N)nc3ccccc3c2c1CCNC(C)=O | 185 to 186 °C
OC(CN1CC1)c1ccccc1 (stereo not given) | 74 to 76 °C

Structure (SMILES) | melting point
CCCCOCCOc1ccc(-c2ccc3c(c2)C=C(C(=O)OC)CCN3c2ccc(S(=O)(=O)N(C)C)cc2)cc1 | 150 to 153 °C
N=C(N)c1ccc(-c2ccc(N3CCCN(CC(=O)O)C3=O)cc2)cc1 | > 200 °C
Cc1ccc(COc2ccc(CC(NC(=O)c3cc4cc(-c5ccc(Cl)cc5)ccc4s3)C(=O)O)cc2)cc1 (stereo not given) | 208 °C
CS(=O)(=O)c1ccc(C(CC2CCOCC2)c2ccc(-c3nnc(CO)s3)[nH]2)cc1 (stereo not given) | 199 to 201 °C
Cc1ncnc(-c2ccc(Oc3ccc([N+](=O)[O-])cc3)cc2)n1 | 148 to 149 °C
Cc1c(OC(=O)c2ccccc2)ccc2c1OC(C)(C)CC2=O | 113 °C
COc1ccc(-c2ccc3cc(C4SC(=O)NC4=O)ccc3c2)cc1C12CC3CC(CC(C3)C1)C2 (stereo not given) | 205 to 207 °C
O=C(NC(=O)c1c(Cl)cccc1OCc1ccccc1)Nc1ccc(C(F)(F)F)cc1 | 264 °C
O=S(=O)(CF)c1cccc(Br)c1Cl | 149 °C
Cc1ccc2c(c1)C1CN(Cc3ccccc3)CCC1N2 (stereo not given) | 179 to 182 °C
CCC1(C)CC(=O)C(C(=O)Nc2ccc(C(F)(F)F)cc2)C(=O)C1 (stereo not given) | 99 to 100 °C
O=C(NN1CCN(CCc2c[nH]c3ccccc23)CC1)c1ccc(O)cc1 | 190 to 192 °C
Cc1cccc(-c2cn(C)cc(-c3cccc(C(F)(F)F)c3)c2=S)c1 | 193 to 196 °C
O=S(Cc1cccc(C(F)(F)F)c1)c1nc2cnccc2[nH]1 (stereo not given) | 194 to 197 °C
O=C1OCCC1=Cc1ccccc1O | 162 to 164 °C
CCOC(=O)c1c(Nc2ccccc2[N+](=O)[O-])c(C)cn1C | 114 °C
O=C(NCC1CC1)c1c(NC(=O)c2cc(C(F)(F)F)nn2-c2ncccc2Cl)ccc2cn[nH]c12 | 240 to 242 °C
CCOC(=O)C1CCN(C(=O)OC)CC1=O (stereo not given) | 36 to 38 °C
COc1cc(C(=O)CS(C)(=O)=O)cc(OC)c1N(C)C(C)=O | 141 to 142 °C
COc1ccc(/C=C(\C#N)c2ccccc2OC)cc1OC1CCCC1 | 85 to 87.5 °C
Nc1nc(NCCN2CCC(NC3(Cc4ccc(F)cc4)Nc4ccccc4N3)CC2)ccc1[N+](=O)[O-] | 206 °C
CCCCCCCCCCNC(=O)c1ccccc1N(CC(=O)OC)CC(=O)OC | 35 to 38 °C
